System: cell lines derived from mouse pancreatic β-cells
Test: Insulin secretion into the culture medium measured by ELISA
Format: cell-based
Details: low- and high-glucose Ringer's solutions; 1 μg/mL or 10 μg/mL (any concentration); stimulated for 30 minutes
Method: Low- and high-glucose Ringer's solutions in the presence of 10 μg/mL pentadecanoic acid triglyceride were added in vitro to cell lines derived from mouse pancreatic β-cells. The cells were then stimulated for 30 minutes.
Separately, as a control, ethanol at concentration of 0.1% (v/v) were added to the cells.
Insulin secreted into the culture medium was measured by ELISA.
Low- and high-glucose Ringer's solutions in the presence of 1 μg/mL or 10 μg/mL pentadecanoic acid (PA in the Figure) were added in vitro to cell lines derived from mouse pancreatic β-cells. The cells were then stimulated for 30 minutes.

SMILES: CCCCCCCCCCCCCCC(=O)O [pentadecanoic acid]
- effect on insulin secretion: no effect

Reference: patent US12485103B2, “Insulin secretion-promoting agent and blood sugar level improver using same, diabetes improver, and food” (REFINE HOLDINGS CO., LTD., priority 2019, dated 2025)
